{"source": "patent US12083084B2", "about": "“Method for enhancing energy production and metabolism in cells” (REPLICON HEALTH OY, priority 2013, dated 2024)", "key": {"[1]": {"test_system": "rat cortical neurons", "experiment": "LDH viability/cytotoxicity of rat cortical neurons (calorie restriction, high doses)", "assay_type": "cell-based", "procedure": "Cell culture. Cortical neurons were dissected from P1 rats and cultured in 96-well plates up to 7 days in the medium containing: neurobasal medium, 1.5% B27 supplement, 1 mM L-glutamine, penicillin/streptomycin.\nTreatment of cells with DGAcs was done in two different ways. In all studies the total cultivation time was 7 days (7th day in vitro=7 DIV). In the first study a clear element of calorie restriction (CR) was built in to the standard model provided by the CRO. The other 24 hour pretreatment was without CR (more info in examples 2.1 and 2.2 below). Separately also exceptionally high doses of DGAcs were administered to neurons. […] (Effective dose was […]).\nCell Viability/Cytotoxicity. Cell Viability was Detected by LDH Tests Like in Examples 1.1-1.2.\nCell treatment: concentration of DGAcs (10, 50 and 100 μg/ml) was added into cell culture medium at 4 DIV. After 24 h (at 5 DIV) 25% of medium was changed to fresh containing 1.5× concentration of DGAcs. Same treatment (change 25% with 1.5× concentration) was repeated at 6 DIV. The cells were transferred into Mg^2+-free Locke's buffer containing the same concentrations of DGAcs immediately before imaging experiments (at 7 DIV). For controls the same amount of medium was changed without addition of DGAcs.\nCell treatment according to the protocol renewed only 25% of the medium during 5 DIV and 6 DIV, meaning that neurons received only very small amounts of new nutrition, i.e. experienced calorie restrictions (CR). […] This same phenomenon of increased cell death in CR was already seen with human hepatocytes in previous examples. Likely explanation is the same: DGAcs administration increases metabolic activity in neurons and/or their (aerobic) ATP production and consumption, which leads to enhanced cell cycle control and programmed cell death (apoptosis) in nutritional scarcity. […] Viability loss compared to zero control was highest and statistically significant in 10 μg/ml group but also all other groups experienced loss of viability."}, "[2]": {"experiment": "4.5 day acute test, wide blood panel (Example 2.3.1)", "assay_type": "in vivo, human", "conditions": "for increased level of blood triglycerides: 4.5 day test", "procedure": "In earlier in vivo experiments (Example 2.1 and 2.2) the last DGAcs was taken in previous night. In this Example the last dose was double in size (=some 10 mg/kg), and it was taken in the same morning as the collection of blood samples. Higher than “normal” therapeutic dose and short time to blood measurement was chosen in order to see a clearer dose response compared to zero control. On top of very wide blood panel, like in Examples 2.1 and 2.2, also gene expression analyses from peripheral leukocytes (Example 2.3.2 below), and concentration analyses from collected plasma samples (Example 2.3.3) was conducted. Also glucose tolerance test and related insulin measurements (Example 2.3.4 below) was conducted. By comparing results of subject 1 (S1) from Example 2.1 and in Example 2.3.1 (below), it is fairly straightforward to see that this “high dose and immediate response strategy” was efficient, and it produced even very important deviations in some parameters due to different administrations.\nIn this Example the 4 day experiment in Example 2.1 was extended into 4.5 day experiment by additional DGAcs dose in the morning before blood measurement. Same wide fasting blood panel consisting of 25 different metrics and full blood count was measured for all participants (sample analytics by United Medix Laboratories, Finland).\nTwo healthy volunteers (S1 and S9) and two (otherwise healthy) volunteers using statin medication (S10 and S11) were chosen for the experiment. The test set up was double blinded. S1 had participated in the earlier 4 day experiment (see Table 3 above and also to a 3 week pilot testing) and served as an important positive control on the efficacy of the DGAcs. Statin group on the other hand was chosen as some kind of a negative control because statins to some extend can possibly counter act the positive effects of the DGAcs and on the other hand also have similar health effects. Statins suppress mevalonate pathway by inhibiting HMG Coa reductase activity and also disturb balancing of cellular NADPH/NADP^+ levels (FIGS. 3b and 4). […] Statin treatment group was not expected to yield positive results but possibly vice versa. For S10 the statin dose was halved two weeks before the test from 20 mg to 10 mg (Simvastatin). For S11 statin treatment was kept at 20 mg per day (also Simvastatin)."}, "[3]": {"test_system": "human hepatocytes", "experiment": "Gene expression from hepatocytes lysates", "assay_type": "cell-based", "conditions": "N = 5"}, "[4]": {"conditions": "4.5 day, 5 mg/kg twice a day, last dose 10 mg/kg, 2.5 hours after last dose, healthy males S1 and S9, fasting blood, vs 0-control"}}, "note": "Several values for one entry are separate records, joined by “and”; a condition that tells them apart may be missing. Equal values may be shown once. Entries after “also recorded” stand apart in the source; their conditions may differ.", "data": [{"smiles": "O.O.O=C([O-])[C@H](O)CO.O=C([O-])[C@H](O)CO.[Ca+2]", "note": "[DGAcs, D-glyceric acid, calcium salt dehydrate]", "values": [{"measurement": "neuronal viability (LDH) under calorie restriction vs zero control", "setting": "[1]; 10, 50 and 100 μg/ml from 4 DIV, only 25% of medium renewed at 5 and 6 DIV, FIG. 13", "result": "dose dependent viability loss; also recorded: confirmed statistically significantly"}, {"measurement": "toxicity to neurons", "setting": "[1]; 40-200 times the effective treatment dose", "result": "No toxicity was observed"}, {"measurement": "Effective dose", "setting": "[1]; rat cortical neurons", "result": "10-50 μg/m"}, {"measurement": "HDL, 4.5 day change", "setting": "[2]; [4]", "result": "1% and −1%"}, {"measurement": "S-Afos, 4.5 day change", "setting": "[2]; [4]", "result": "8% and 12%"}, {"measurement": "S-Alb, 4.5 day change", "setting": "[2]; [4]", "result": "5% and 10%"}, {"measurement": "S-Amyl, 4.5 day change", "setting": "[2]; [4]", "result": "−5% and −3%"}, {"measurement": "S-Cal, 4.5 day change", "setting": "[2]; [4]", "result": "4% and 3%"}, {"measurement": "S-LDH, 4.5 day change", "setting": "[2]; [4]", "result": "−4% and −7%"}, {"measurement": "S-Mg, 4.5 day change", "setting": "[2]; [4]", "result": "5% and 0%"}, {"measurement": "S-Na, 4.5 day change", "setting": "[2]; [4]", "result": 1, "unit": "%"}, {"measurement": "S-Uraat, 4.5 day change", "setting": "[2]; [4]", "result": "4% and −1%"}, {"measurement": "fS-Gluk, 4.5 day change", "setting": "[2]; [4]", "result": "−2% and 4%"}, {"measurement": "fS-Krea, 4.5 day change", "setting": "[2]; [4]", "result": "3% and 9%"}, {"measurement": "fS-Transf, 4.5 day change", "setting": "[2]; [4]", "result": "5% and 8%"}, {"measurement": "fS-Trigly, 4.5 day change", "setting": "[2]; [4]", "result": "−3% and −5%"}, {"measurement": "blood LDH declined", "setting": "[2]; S1, 4.5 day test", "result": 4, "unit": "%"}, {"measurement": "blood urea decline", "setting": "[2]; S1, 4.5 day test", "result": 7, "unit": "%"}, {"measurement": "creatine kinase (S-CK) declined", "setting": "[2]; S1, 4.5 day test", "result": 14, "unit": "%"}, {"measurement": "AST/ALT (ratio) after treatment", "setting": "[2]; S1, 4.5 day test (zero control 1.32)", "result": 0.96}, {"measurement": "increased level of blood triglycerides", "setting": "[2]; S10, statin group (Simvastatin 10 mg)", "result": "+83.5%"}, {"measurement": "increased level of blood triglycerides", "setting": "[2]; S11, statin group (Simvastatin 20 mg)", "result": "+25.6%"}, {"measurement": "CYP2B6 gene expression deviation from control", "setting": "[3]; donor alpha, 1.4 (μM)", "result": 38, "unit": "%"}, {"measurement": "PGC-1a gene expression deviation from control", "setting": "[3]; donor alpha, 1.4 (μM)", "result": 5, "unit": "%"}, {"measurement": "CYP2B6 gene expression deviation from control", "setting": "[3]; donor alpha, 14 (μM)", "result": 45, "unit": "%"}, {"measurement": "PGC-1a gene expression deviation from control", "setting": "[3]; donor alpha, 14 (μM)", "result": 20, "unit": "%"}, {"measurement": "CYP2B6 gene expression deviation from control", "setting": "[3]; donor one, 1.4 (μM)", "result": 8, "unit": "%"}, {"measurement": "HO-1 gene expression deviation from control", "setting": "[3]; donor one, 1.4 (μM)", "result": 54, "unit": "%"}, {"measurement": "PGC-1a gene expression deviation from control", "setting": "[3]; donor one, 1.4 (μM)", "result": 12, "unit": "%"}, {"measurement": "CYP2B6 gene expression deviation from control", "setting": "[3]; donor one, 14 (μM)", "result": 3, "unit": "%"}, {"measurement": "HO-1 gene expression deviation from control", "setting": "[3]; donor one, 14 (μM)", "result": 50, "unit": "%"}, {"measurement": "PGC-1a gene expression deviation from control", "setting": "[3]; donor one, 14 (μM)", "result": 42, "unit": "%"}, {"measurement": "CYP2B6 gene expression deviation from control", "setting": "[3]; donor three, 1.4 (μM)", "result": 29, "unit": "%"}, {"measurement": "HO-1 gene expression deviation from control", "setting": "[3]; donor three, 1.4 (μM)", "result": 83, "unit": "%"}, {"measurement": "PGC-1a gene expression deviation from control", "setting": "[3]; donor three, 1.4 (μM)", "result": 45, "unit": "%"}, {"measurement": "CYP2B6 gene expression deviation from control", "setting": "[3]; donor three, 14 (μM)", "result": 49, "unit": "%"}, {"measurement": "HO-1 gene expression deviation from control", "setting": "[3]; donor three, 14 (μM)", "result": 21, "unit": "%"}, {"measurement": "PGC-1a gene expression deviation from control", "setting": "[3]; donor three, 14 (μM)", "result": 1, "unit": "%"}]}]}
